Assay results as given in ChEMBL document CHEMBL3045499, “Chem-bioinformatics and in vitro approaches for candidate optimization: a case study of NSC745689 as a promising antitumor agent” (Med Chem Res, 2013).
Active and inactive are the calls of the source. The rule behind the calls is not given here.

What was measured:
HOP-62 = test: Growth inhibition of Homo sapiens (human) HOP62 cells after 48 hr by SRB assay; assay type: functional; settings: HOP-62, 48 h
HOP-92 [1] = test: Growth inhibition of Homo sapiens (human) HOP92 cells after 48 hr by SRB assay; assay type: functional; settings: HOP-92, 48 h
SR = test: Growth inhibition of Homo sapiens (human) SR cells after 48 hr by SRB assay; assay type: functional
A549 = test: Growth inhibition of Homo sapiens (human) A549/ATCC cells after 48 hr by SRB assay; assay type: functional; settings: A549, 48 h
EKVX = test: Growth inhibition of Homo sapiens (human) EKVX cells after 48 hr by SRB assay; assay type: functional
MOLT-4 = test: Growth inhibition of Homo sapiens (human) MOLT4 cells after 48 hr by SRB assay; assay type: functional; settings: MOLT-4, 48 h
RPMI-8226 = test: Growth inhibition of Homo sapiens (human) RPMI8226 cells after 48 hr by SRB assay; assay type: functional; settings: RPMI-8226, 48 h
CCRF-CEM = test: Growth inhibition of Homo sapiens (human) CCRF-CEM cells after 48 hr by SRB assay; assay type: functional
HL-60(TB) = test: Growth inhibition of Homo sapiens (human) HL-60(TB) cells after 48 hr by SRB assay; assay type: functional; settings: HL-60, 48 h
K562 = test: Growth inhibition of Homo sapiens (human) K562 cells after 48 hr by SRB assay; assay type: functional; settings: K562, 48 h
T47D = test: Growth inhibition of Homo sapiens (human) T47D cells after 48 hr by SRB assay; assay type: functional
MDA-MB-468 = test: Growth inhibition of Homo sapiens (human) MDA-MB-468 cells after 48 hr by SRB assay; assay type: functional; settings: MDA-MB-468, 48 h
BT-549 = test: Growth inhibition of Homo sapiens (human) BT549 cells after 48 hr by SRB assay; assay type: functional; settings: BT-549, 48 h
Hs-578T = test: Growth inhibition of Homo sapiens (human) Hs 578T cells after 48 hr by SRB assay; assay type: functional
MDA-MB-435 = test: Growth inhibition of Homo sapiens (human) MDA-MB-435 cells after 48 hr by SRB assay; assay type: functional; settings: MDA-MB-435, 48 h
NCI/ADR-RES = test: Growth inhibition of Homo sapiens (human) NCI/ADR-RES cells after 48 hr by SRB assay; assay type: functional
MDA-MB-231 = test: Growth inhibition of Homo sapiens (human) MDA-MB-231/ATCC cells after 48 hr by SRB assay; assay type: functional; settings: MDA-MB-231, 48 h
SNB-75 [2] = test: Growth inhibition of Homo sapiens (human) SNB75 cells after 48 hr by SRB assay; assay type: functional; settings: SNB-75, 48 h
U-251 = test: Growth inhibition of Homo sapiens (human) U251 cells after 48 hr by SRB assay; assay type: functional; settings: U-251, 48 h
MCF7 = test: Growth inhibition of Homo sapiens (human) MCF7 cells after 48 hr by SRB assay; assay type: functional; settings: MCF7, 48 h
SF-539 = test: Growth inhibition of Homo sapiens (human) SF539 cells after 48 hr by SRB assay; assay type: functional; settings: SF-539, 48 h
SNB-19 = test: Growth inhibition of Homo sapiens (human) SNB19 cells after 48 hr by SRB assay; assay type: functional; settings: SNB-19, 48 h
SF-268 = test: Growth inhibition of Homo sapiens (human) SF268 cells after 48 hr by SRB assay; assay type: functional; settings: SF-268, 48 h
SF-295 = test: Growth inhibition of Homo sapiens (human) SF295 cells after 48 hr by SRB assay; assay type: functional; settings: SF-295, 48 h
NCI-H460 = test: Growth inhibition of Homo sapiens (human) NCI-H460 cells after 48 hr by SRB assay; assay type: functional; settings: NCI-H460, 48 h
NCI-H522 = test: Growth inhibition of Homo sapiens (human) NCI-H522 cells after 48 hr by SRB assay; assay type: functional; settings: NCI-H522, 48 h
NCI-H226 = test: Growth inhibition of Homo sapiens (human) NCI-H226 cells after 48 hr by SRB assay; assay type: functional; settings: NCI-H226, 48 h
NCI-H23 = test: Growth inhibition of Homo sapiens (human) NCI-H23 cells after 48 hr by SRB assay; assay type: functional; settings: NCI-H23, 48 h
NCI-H322M = test: Growth inhibition of Homo sapiens (human) NCI-H322M cells after 48 hr by SRB assay; assay type: functional
SNB-75 [3] = test: Growth inhibition of Homo sapiens (human) SNB75 cells at 1 uM after 48 hr by SRB assay; assay type: functional, cell-based
HOP-92 [4] = test: Growth inhibition of Homo sapiens (human) HOP92 cells at 1 uM after 48 hr by SRB assay; assay type: functional, cell-based
Cytochrome P450 1A1 = Cytochrome P450 1A1 (Homo sapiens, UniProt P04798); test: Inhibition of recombinant CYP1A1 (unknown origin) using 7-ethoxyresorufin as substrate by EROD assay
Cytochrome P450 1A1, sequence (P04798 whole entry): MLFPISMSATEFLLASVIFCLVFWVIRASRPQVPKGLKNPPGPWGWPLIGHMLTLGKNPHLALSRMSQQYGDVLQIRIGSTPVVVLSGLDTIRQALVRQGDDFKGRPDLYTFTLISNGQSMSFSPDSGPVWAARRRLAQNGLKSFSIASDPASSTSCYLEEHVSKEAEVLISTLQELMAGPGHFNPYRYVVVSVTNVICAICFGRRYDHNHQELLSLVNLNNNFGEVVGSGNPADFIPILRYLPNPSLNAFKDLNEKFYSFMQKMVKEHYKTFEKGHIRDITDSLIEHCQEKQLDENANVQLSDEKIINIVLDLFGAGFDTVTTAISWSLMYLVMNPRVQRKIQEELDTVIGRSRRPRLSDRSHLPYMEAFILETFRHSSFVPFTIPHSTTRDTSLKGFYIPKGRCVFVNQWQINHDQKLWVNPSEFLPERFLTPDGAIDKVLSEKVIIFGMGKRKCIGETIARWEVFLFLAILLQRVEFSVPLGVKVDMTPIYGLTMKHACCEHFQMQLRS

SMILES | GI50 (HOP-62) | GI50 (HOP-92 [1]; read-out: pGI50 (converted)) | GI50 (SR) | GI50 (EKVX) | GI50 (MOLT-4) | GI50 (HL-60(TB)) | GI50 (K562) | GI50 (T47D) | GI50 (BT-549) | GI50 (Hs-578T; read-out: pGI50 (converted)) | GI50 (MDA-MB-435) | GI50 (NCI/ADR-RES) | GI50 (MDA-MB-231) | GI50 (SNB-75 [2]; read-out: pGI50 (converted)) | GI50 (U-251) | GI50 (MCF7) | GI50 (SF-539) | GI50 (SNB-19) | GI50 (SF-268) | GI50 (SF-295) | other results
COc1ccc(Nc2nc3sc4cc(Cl)ccc4n3c(=N)c2C#N)cc1 | 3.39 µM | 20.9 µM | 19.1 µM | 1.91 µM | 13.2 µM | 34.7 µM | 57.5 µM | 29.5 µM | 4.07 µM | 0.407 µM | 3.09 µM | 2.82 µM | 2.04 µM | 3.39 µM | 4.07 µM | 2.51 µM | 30.9 µM | 40.7 µM | 4.37 µM | 1.7 µM | GI50 (A549): 50.1 µM; GI50 (RPMI-8226): 17 µM; GI50 (CCRF-CEM): 17.4 µM; GI50 (MDA-MB-468): 3.55 µM; GI50 (Hs-578T; read-out: GI50): 0.406 µM; GI50 (NCI-H460): 26.3 µM; GI50 (NCI-H522): 33.1 µM; GI50 (NCI-H226): 1.91 µM; GI50 (NCI-H23): 1.55 µM; GI50 (NCI-H322M): 3.31 µM
CSc1nc2sc3cc(Cl)ccc3n2c(=N)c1C#N | 38 µM | 0.01 µM | 9.77 µM | 9.77 µM | 2.51 µM | 1.35 µM | 27.5 µM | 28.2 µM | 23.4 µM | 4.9 µM | > 100 µM | 17.8 µM | 74.1 µM | 12.3 µM | 30.2 µM | 3.89 µM | 26.9 µM | 40.7 µM | 21.4 µM | 2.19 µM | GI50 (HOP-92 [1]; read-out: GI50): 0.219 µM; GI50 (A549): 5.89 µM; GI50 (RPMI-8226): 64.6 µM; GI50 (CCRF-CEM): 3.55 µM; growth inhibition (GI) (SNB-75 [3]): Active; growth inhibition (GI) (HOP-92 [4]): Active; IC50 (Cytochrome P450 1A1): 2.5 µM; GI50 (Hs-578T; read-out: GI50): 1.71 µM; GI50 (SNB-75 [2]; read-out: GI50): 0.416 µM; GI50 (NCI-H460): 63.1 µM; GI50 (NCI-H522): 60.3 µM; GI50 (NCI-H226): 38 µM; GI50 (NCI-H23): 26.9 µM; GI50 (NCI-H322M): > 100 µM
N#Cc1c(Nc2ccc(Cl)cc2)nc2sc3cc(Cl)ccc3n2c1=N | 0.00457 µM | > 100 µM | 2.29 µM | 10.2 µM | 2.51 µM | > 100 µM | > 100 µM | > 100 µM | 24.5 µM | 1.45 µM | 6.17 µM | 4.68 µM | 7.24 µM | 5.01 µM | 6.61 µM | 1.82 µM | 8.71 µM | > 100 µM | 4.07 µM | 3.02 µM | GI50 (HOP-92 [1]; read-out: GI50): 1.82 µM; GI50 (MDA-MB-468): 3.63 µM; GI50 (NCI-H460): 21.9 µM; GI50 (NCI-H226): 2.4 µM; GI50 (NCI-H23): 0.646 µM; GI50 (NCI-H322M): 28.2 µM
